Results reported in patent US11109593B2, “Isoxazolin-5-one derivative and herbicide containing same as active ingredient” (HOKKO CHEMICAL INDUSTRY CO., LTD., priority 2017, dated 2021).

Each molecule was assayed on Echinochloa crus-galli (assay: Test Example 1: herbicidal effect test by treatment of rice paddy soil (immediately after seeding)). Settings: 120 g/10a active ingredient, dry weight vs untreated area, 14 days after treatment.
Type: in vivo
In short: (§1)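 Application occurs immediately after seeding, with diluted emulsion added to paddy water (about 3 cm deep) over puddled, fertilized soil at 120 g active ingredient per 10 ares. Herbicidal rate is calculated from mean dry weight against untreated controls 14 days later.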

| Structure (SMILES) | Herbicidal rate (%) Echinochloa crus-galli [%] |
| --- | --- |
| CCCCC(CC)Cn1oc(=O)c(Cc2ccccc2NS(=O)(=O)C(F)(F)F)c1C (centres unmarked) [Compound 1-130] | 100 |
| Cc1c(Cc2cccc(Cl)c2NS(=O)(=O)C(F)(F)F)c(=O)on1C(C)C [Compound 1-33] | 80 |

The molecules below were run on Scirpus juncoides in the same assay as above. Settings: 120 g/10a active ingredient, dry weight vs untreated area, 14 days after treatment.
Type: in vivo
In short: as §1

| Structure (SMILES) | Herbicidal rate (%) Scirpus juncoides [%] |
| --- | --- |
| CCCCC(CC)Cn1oc(=O)c(Cc2ccccc2NS(=O)(=O)C(F)(F)F)c1C (centres unmarked) [Compound 1-130] | 100 |
| Cc1c(Cc2cccc(Cl)c2NS(=O)(=O)C(F)(F)F)c(=O)on1C(C)C [Compound 1-33] | 100 |

Each molecule was assayed on broad leaf weeds (Lindernia pyxidaria and Monochoria vaginalis) in the same assay as above. Settings: Lindernia pyxidaria, 120 g/10a active ingredient, dry weight vs untreated area, 14 days after treatment.
Type: in vivo
In short: as §1

| Structure (SMILES) | Herbicidal rate (%) Lindernia pyxidaria [%] |
| --- | --- |
| CCCCC(CC)Cn1oc(=O)c(Cc2ccccc2NS(=O)(=O)C(F)(F)F)c1C (centres unmarked) [Compound 1-130] | 100 |
| Cc1c(Cc2cccc(Cl)c2NS(=O)(=O)C(F)(F)F)c(=O)on1C(C)C [Compound 1-33] | 90 |

Same assay, conditions: Monochoria vaginalis, 120 g/10a active ingredient, dry weight vs untreated area, 14 days after treatment

| Structure (SMILES) | Herbicidal rate (%) Monochoria vaginalis [%] |
| --- | --- |
| CCCCC(CC)Cn1oc(=O)c(Cc2ccccc2NS(=O)(=O)C(F)(F)F)c1C (centres unmarked) [Compound 1-130] | 100 |
| Cc1c(Cc2cccc(Cl)c2NS(=O)(=O)C(F)(F)F)c(=O)on1C(C)C [Compound 1-33] | 90 |

Each molecule was assayed on Echinochloa crus-galli (assay: Test Example 2: herbicidal effect test by treatment during growing period in paddy rice cultivation (seven days after seeding)). Settings: 120 g/10a active ingredient, assessed 14 days after treatment, dry weight vs untreated area.
Type: in vivo
In short: (§2)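 Seeds sown 0–1 cm deep in puddled, fertilised paddy soil with about 3 cm standing water in a glass greenhouse. Diluted emulsion dropped into the water seven days after seeding at 120 g active ingredient per 10 ares. Herbicidal rate (%) from mean dry weight vs untreated, duplicate, 14 days after treatment.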

| Structure (SMILES) | Herbicidal rate (%) Echinochloa crus-galli [%] |
| --- | --- |
| CCCCC(CC)Cn1oc(=O)c(Cc2ccccc2NS(=O)(=O)C(F)(F)F)c1C (centres unmarked) [Compound 1-130] | 100 |
| Cc1c(Cc2cccc(Cl)c2NS(=O)(=O)C(F)(F)F)c(=O)on1C(C)C [Compound 1-33] | 60 |

The molecules below were run on Scirpus juncoides in the same assay as above. Settings: 120 g/10a active ingredient, assessed 14 days after treatment, dry weight vs untreated area.
Type: in vivo
In short: as §2

| Structure (SMILES) | Herbicidal rate (%) Scirpus juncoides [%] |
| --- | --- |
| CCCCC(CC)Cn1oc(=O)c(Cc2ccccc2NS(=O)(=O)C(F)(F)F)c1C (centres unmarked) [Compound 1-130] | 80 |
| Cc1c(Cc2cccc(Cl)c2NS(=O)(=O)C(F)(F)F)c(=O)on1C(C)C [Compound 1-33] | 80 |

These molecules were tested on broad leaf weeds (Lindernia pyxidaria and Monochoria vaginalis) in the same assay as above. Settings: Lindernia pyxidaria, 120 g/10a active ingredient, assessed 14 days after treatment, dry weight vs untreated area.
Type: in vivo
In short: as §2

| Structure (SMILES) | Herbicidal rate (%) Lindernia pyxidaria [%] |
| --- | --- |
| CCCCC(CC)Cn1oc(=O)c(Cc2ccccc2NS(=O)(=O)C(F)(F)F)c1C (centres unmarked) [Compound 1-130] | 90 |
| Cc1c(Cc2cccc(Cl)c2NS(=O)(=O)C(F)(F)F)c(=O)on1C(C)C [Compound 1-33] | 60 |

Same assay, conditions: Monochoria vaginalis, 120 g/10a active ingredient, assessed 14 days after treatment, dry weight vs untreated area

| Structure (SMILES) | Herbicidal rate (%) Monochoria vaginalis [%] |
| --- | --- |
| CCCCC(CC)Cn1oc(=O)c(Cc2ccccc2NS(=O)(=O)C(F)(F)F)c1C (centres unmarked) [Compound 1-130] | 90 |
| Cc1c(Cc2cccc(Cl)c2NS(=O)(=O)C(F)(F)F)c(=O)on1C(C)C [Compound 1-33] | 60 |

Each molecule was assayed on Amaranthus viridis (assay: Test Example 3: herbicidal effect test by treatment of dry field farming soil (one day after seeding)). Settings: 120 g/10a active ingredient, evaluated 14 days after treatment.
Type: in vivo
In short: (§3)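 Alluvial dry-field soil in pots, top 1 cm mixed with 20 seeds per weed species. One day after seeding, the water-diluted emulsion was sprayed onto the soil surface at 100 L per 10 ares (120 g active ingredient per 10 ares). Duplicate pots; herbicidal rate (%) from plant dry weight versus untreated, 14 days after treatment.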

| Structure (SMILES) | herbicidal rate, Amaranthus viridis [%] |
| --- | --- |
| CCCCC(CC)Cn1oc(=O)c(Cc2ccccc2NS(=O)(=O)C(F)(F)F)c1C (centres unmarked) [Compound 1-130] | 40 |
| Cc1c(Cc2cccc(Cl)c2NS(=O)(=O)C(F)(F)F)c(=O)on1C(C)C [Compound 1-33] | 0 |

The molecules below were run on Chenopodium album in the same assay as above. Settings: 120 g/10a active ingredient, evaluated 14 days after treatment.
Type: in vivo
In short: as §3

| Structure (SMILES) | herbicidal rate, Chenopodium album [%] |
| --- | --- |
| CCCCC(CC)Cn1oc(=O)c(Cc2ccccc2NS(=O)(=O)C(F)(F)F)c1C (centres unmarked) [Compound 1-130] | 50 |
| Cc1c(Cc2cccc(Cl)c2NS(=O)(=O)C(F)(F)F)c(=O)on1C(C)C [Compound 1-33] | 40 |

Each molecule was assayed on Echinochloa crus-galli in the same assay as above. Settings: 120 g/10a active ingredient, evaluated 14 days after treatment.
Type: in vivo
In short: as §3

| Structure (SMILES) | herbicidal rate, Echinochloa crus-galli [%] |
| --- | --- |
| CCCCC(CC)Cn1oc(=O)c(Cc2ccccc2NS(=O)(=O)C(F)(F)F)c1C (centres unmarked) [Compound 1-130] | 90 |
| Cc1c(Cc2cccc(Cl)c2NS(=O)(=O)C(F)(F)F)c(=O)on1C(C)C [Compound 1-33] | 90 |

What follows are molecules tested on southern crabgrass in the same assay as above. Settings: 120 g/10a active ingredient, evaluated 14 days after treatment.
Type: in vivo
In short: as §3

| Structure (SMILES) | herbicidal rate, southern crabgrass [%] |
| --- | --- |
| CCCCC(CC)Cn1oc(=O)c(Cc2ccccc2NS(=O)(=O)C(F)(F)F)c1C (centres unmarked) [Compound 1-130] | 70 |
| Cc1c(Cc2cccc(Cl)c2NS(=O)(=O)C(F)(F)F)c(=O)on1C(C)C [Compound 1-33] | 70 |

Each molecule was assayed on Amaranthus viridis (assay: Test Example 4: herbicidal effect test by treatment of leave and stem in dry field farming (seven days after seeding)). Settings: 120 g/10a active ingredient; emulsion sprayed seven days after seeding; evaluated 14 days after treatment.
Type: in vivo
In short: (§4)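 Weeds were seeded at 20 seeds per species into the top 1 cm of alluvial upland soil in pots, then sprayed 7 days after seeding with water-diluted emulsifiable concentrate at 100 L/10 a, giving 120 g active ingredient/10 a. Duplicate pots; herbicidal rate (%) was 14 days post-treatment, from dry weight versus untreated.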

| Structure (SMILES) | herbicidal effect (herbicidal rate), Amaranthus viridis [%] |
| --- | --- |
| CCCCC(CC)Cn1oc(=O)c(Cc2ccccc2NS(=O)(=O)C(F)(F)F)c1C (centres unmarked) [Compound 1-130] | 50 |
| Cc1c(Cc2cccc(Cl)c2NS(=O)(=O)C(F)(F)F)c(=O)on1C(C)C [Compound 1-33] | 0 |

These molecules were tested on Chenopodium album in the same assay as above. Settings: 120 g/10a active ingredient; emulsion sprayed seven days after seeding; evaluated 14 days after treatment.
Type: in vivo
In short: as §4

| Structure (SMILES) | herbicidal effect (herbicidal rate), Chenopodium album [%] |
| --- | --- |
| CCCCC(CC)Cn1oc(=O)c(Cc2ccccc2NS(=O)(=O)C(F)(F)F)c1C (centres unmarked) [Compound 1-130] | 40 |
| Cc1c(Cc2cccc(Cl)c2NS(=O)(=O)C(F)(F)F)c(=O)on1C(C)C [Compound 1-33] | 40 |

What follows are molecules tested on Echinochloa crus-galli in the same assay as above. Settings: 120 g/10a active ingredient; emulsion sprayed seven days after seeding; evaluated 14 days after treatment.
Type: in vivo
In short: as §4

| Structure (SMILES) | herbicidal effect (herbicidal rate), Echinochloa crus-galli [%] |
| --- | --- |
| CCCCC(CC)Cn1oc(=O)c(Cc2ccccc2NS(=O)(=O)C(F)(F)F)c1C (centres unmarked) [Compound 1-130] | 60 |
| Cc1c(Cc2cccc(Cl)c2NS(=O)(=O)C(F)(F)F)c(=O)on1C(C)C [Compound 1-33] | 90 |

These molecules were tested on southern crabgrass in the same assay as above. Settings: 120 g/10a active ingredient; emulsion sprayed seven days after seeding; evaluated 14 days after treatment.
Type: in vivo
In short: as §4

| Structure (SMILES) | herbicidal effect (herbicidal rate), southern crabgrass [%] |
| --- | --- |
| CCCCC(CC)Cn1oc(=O)c(Cc2ccccc2NS(=O)(=O)C(F)(F)F)c1C (centres unmarked) [Compound 1-130] | 60 |
| Cc1c(Cc2cccc(Cl)c2NS(=O)(=O)C(F)(F)F)c(=O)on1C(C)C [Compound 1-33] | 40 |
